The values below come from US7671054B1, “Reverse-turn mimetics and method relating thereto” (Choongwae Pharma Corporation, priority 2001, dated 2010).

Data set [1] relates to survivin promoter in SW480 cells. The data set can be described thus: Survivin luciferase reporter in SW480 cells. It is filed as cell-based. As to conditions: for pIC50: Homo sapiens, SW480, Table 10, prodrug compounds, reporter gene assay Survivin, read-out: RGA, Survivin IC50.
Data set [2] has as its system SW480 cells. The data set is described as follows: Soft agar assay, Compound A with 5-FU. It is filed as cell-based. The following applies: for LD50, soft agar assay: 8 days. As to the method: Compound A solution and upper layer solution containing agarose were mixed, and SW480 cells were added and solidified. Plates were incubated 37° C. at CO2 incubator for 8 days after solidification at room temperature for 30 min, and colonies were counted under microscope (FIG. 19).

Data set [3] relates to TCF4/β-catenin transcription (TOPFlash) in SW480 cells. The data set can be described thus: Reporter gene assay (TOPFlash luciferase). It is filed as cell-based. The following applies: Homo sapiens, SW480, Table 10; prodrug compounds, reporter gene assay TopF; read-out: RGA, TopF IC50. In outline: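 SW480 cells transiently co-transfected with TOPFlash and pRL-null (4:1 µg) using Superfect, then reseeded at 3×10^4 cells/well and incubated overnight at 37 °C. Compound treatment lasted 24 h before luciferase read-out.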
A general note: Reporter assays use an easily measured gene product as a stand-in for the process of interest.

For data set [4], the system named is HCT116 cells. The data set is described as follows: MTS cytotoxicity test. The data set is classed as cell-based. As to conditions: Homo sapiens, HCT-116, Table 10, prodrug compounds, 24 hours treatment, read-out: MTS, HCT116 (uM) LD50. As to the method: (§1) SW480 or HCT116 cells were placed into 96 well microplate (10^4cells/well) and incubated for 24 hours at 37° C. The cells were treated with TCF4 compound at various concentrations for 24 hours. 20 μl of MTS solution (Promega) was added into each well and incubated for 2 hours at 37° C. Cell viability was measured by reading the absorbance at 490 nm using microplate reader (Molecular Device) and cytotoxicity of a compound at each concentration was calculated.

For data set [5], the system named is SW480 cells. The data set is described as follows: MTS cytotoxicity test. It is filed as cell-based. As to conditions: Homo sapiens, Table 10, prodrug compounds, 24 hours treatment, read-out: MTS, SW480 (uM) LD50. As to the method:
as §1

Data set [6] concerns HCT116 cells. The data set can be described thus: Growth inhibition assay (MTS). The following applies: Homo sapiens, HCT-116; Table 10; prodrug compounds, HCT116 cells, growth inhibition; read-out: MTS, HCT116 (uM) GI50. The data set is classed as cell-based. The procedure, abridged:
(§2)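 Cells seeded at 10^4 per well, grown 24 h at 37° C, then exposed to compound at various concentrations for 48 hours. MTS added for 2 h; absorbance at 490 nm gave viability, with cytotoxicity calculated per concentration against pre-treatment reading.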

Data set [7] deals with SW480 cells. The data set can be described thus: Growth inhibition assay (MTS). It is filed as cell-based. As to conditions: Homo sapiens; Table 10; prodrug compounds, SW480 cells, growth inhibition; read-out: MTS, SW480 (uM) GI50. The procedure, abridged:
as §2

In another data set the test system is HUVEC. The data set can be described thus: Tube formation assay (In Vitro Angiogenesis Assay Kit). The following applies: 0.1-10 μM, 12 h. It is filed as cell-based. As to the method: Tube formation assay was performed using an In Vitro Angiogenesis Assay Kit (Chemicon International, Inc., Temecula, Calif., USA). Briefly, solid gels were prepared according to the manufacturer's manual on a 96-well tissue culture plate. HUVEC (1×10^5 cells/ml) in HuMedia EG-2 medium containing […] were seeded 100 μl per well onto the surface of the solid gel, ECMatrix™. The cells were incubated with vehicle control, Compound E at 0.1 μM, 0.3 μm, 1.0 μM, 3 μM, and 10 μM, or Fumagilin at 10 μM for 12 h at 37° C. in a CO2 incubator. Tube formation was observed under an inverted light microscope at ×100 magnification. Microscopic fields were photographed with a digital camera.

Data set [8] deals with min mice (polyp formed in small intestine and colon). The data set can be described thus: Min mouse model. As to conditions: about 300 mpk. The data set is classed as in vivo. As to the method:
Selected compounds of the present invention (Compound B and Compound C) were evaluated in the min mouse model to evaluate their efficacy as anti-cancer agents.
The min mouse model is a widely used model to test for this type of efficacy. The numbers of polyp formed in small intestine and colon of these mice after various treatments were measured (Table 7).

The test system of data set [9] is S.D. rats with Mycobacterium butyricum-induced polyarthritis. The data set can be described thus: Rat adjuvant-induced arthritis model. The data set is classed as in vivo. As to the method: To induce polyarthritis, six-week-old male S.D. rats received intradermal injection (base of tail) of 100 μl of Mycobacterium butyricum (Cat. No. 264010, Difco) in mineral oil (5 mg/ml) on Day 0. The test compound, Compound F, was given once daily at Day 1, 2, 3, 4, 5, 8, 10, 12 and 14 by oral gavage. […] The paw thickness was measured with digital caliper (Mitutoyo, Japan) and the arthritic index was accessed (FIG. 21).

The test system of data set [10] is TNF-α in serum of ICR mice. The data set can be described thus: Serum TNF-α induced by intraperitoneal LPS. It is filed as in vivo, mouse. As to conditions: perorally 60 min prior to LPS, blood 90 min after. As to the method: Male young ICR mice received intraperitoneal injection of LPS (E. coli O111:B4). Compound F was administered perorally 60 min prior to LPS challenge and blood was drawn 90 min subsequent to challenge. Vehicle control mice received the pharmacological carrier used for Compound F only. Concentration of TNF-α in the serum was determined by ELISA method. […] For reference, dexamethasone (Dex, Sigma) was treated (15 mg/kg, oral).

The test system of data set [11] is NF-κB in stably transfected A549 cells. The data set is described as follows: NF-κB reporter assay. The data set is classed as cell-based. As to conditions: PMA 10 ng/ml, 6 hr. As to the method:
Cells were transferred into each well of 96 well white opaque plates (1×10^4 cells/well/50 μl) and incubated 24 hr at 37° C. in 5% CO2 incubator. The test compound, Compound F, was added to each well, and 1 hr later, phorbol 12-myristate 13-acetate (PMA) (10 ng/ml) was added into each well. Plates were incubated further for 6 hr at 37° C. in 5% CO2 incubator. One hundred microliter of Dual-glo FireFly substrate (Promega) was added and incubated for 10 min. Luminescence of each well was measured with a luminometer (Victor II) (FIG. 23).

Data set [12] concerns TNF-α production in THP-1 cells. The data set can be described thus: LPS-induced TNF-α production in THP-1 cells. The data set is classed as cell-based. The following applies: Homo sapiens, LPS 100 ng/ml, 6 hr. As to the method: LPS-induced TNF-α production in THP-1 cells: THP-1 cells were incubated with 200 nM PMA for 24 hr. Cells were harvested with trypsin and seeded into 96 well tissue culture plates (2×10^4 cells/well). The test compound, Compound F, was added to each well followed by LPS (100 ng/ml). The cells were further incubated for 6 hr at 37° C. in a CO2 incubator. Media was collected and concentration of TNF-α was determined with the ELISA kit (OptEIA, BD).

In data set [13] the test system is IL-2 production in Jurkat cells. The data set is described as follows: PMA/ionomycin-induced IL-2 production in Jurkat cells. It is filed as cell-based. As to conditions: Homo sapiens, 6 hr. As to the method:
PMA/lonomycin-induced IL-2 production in Jurkat cells: Jurkat cells were seeded into 96 well tissue culture plates (1×10^5 cells/well) and treated with the test compound, Compound F, and further incubated for 60 min at 37° C. in a CO2 incubator. Stimulant (10 ng/ml PMA and 1 μg/ml ionomycin) was added into each well, and the cells were further incubated for 6 hr at 37° C. in a CO2 incubator. Supernatant was collected and concentration of IL-2 was determined with the ELISA kit (OptEIA, BD).

pIC50: −log10 of the molar value. “Also recorded” adds a separate entry of the source. Bounds are passed on as bounds.

With `CN1CC(=O)N2[C@@H](Cc3ccc(O)cc3)C(=O)N(Cc3cccc4ccccc34)C[C@@H]2N1C(=O)NCc1ccccc1` [Compound A], the “survivin luciferase reporter activity” value in data set [1] (SW480 cells, various concentrations) is “inhibit expression of survivin; also recorded: inhibit the activity of a survivin luciferase reporter”. Further, the “synergy with 5-FU in soft agar assay” value in the data set with SW480 cells [2] was “synergism of anti-cancer activity; also recorded: synergy”. The “LD50, soft agar assay” value was 76 µM in the data set on SW480 cells [2] (in combination with 0 μM 5-FU), 30 µM in the data set with SW480 cells [2] (in combination with 1 μM 5-FU) and 2 µM in the data set on SW480 cells [2] (in combination with 4 μM 5-FU).

Take `CN1CC(=O)N2[C@@H](Cc3ccc(OP(=O)(O)O)cc3)C(=O)N(Cc3cccc4cccnc34)C[C@@H]2N1C(=O)NCc1ccccc1` [Compound 9]: the pIC50 in data set [3] is 5.02; in data set [1], 5.22. In addition, the IC50 in the data set on HCT116 cells [4] and in the data set on SW480 cells [5] was over 50 µM in each case. The concentration for 50% growth inhibition (GI50) was found to be 14.7 µM with HCT116 cells [6] and 7.6 µM in the data set on SW480 cells [7].

Regarding `C=CCN1CC(=O)N2[C@@H](Cc3ccc(O)cc3)C(=O)N(Cc3ccccc3)C[C@@H]2N1C(=O)NCc1ccccc1` [Compound E], the tube formation result in the data set on HUVEC is reported as “inhibited tube formation in a dose-dependent manner”.

For the compound `CN1CC(=O)N2[C@@H](Cc3ccc(O)cc3)C(=O)N(Cc3cccc4cccnc34)C[C@@H]2N1C(=O)NCc1ccccc1` [Compound B], the “number of polyp compared to vehicle control mice” value in data set [8] is reported as “reduce the number of polyp in min mice”.

As for `CC(C)C[C@H]1C(=O)N(CCC(c2ccccc2)c2ccccc2)C[C@H]2N1C(=O)CN(C)N2C(=O)NCc1ccccc1` [Compound F], the “increase of paw thickness” value in data set [9] (oral 30 mg/kg) and in [9] (oral 100 mg/kg) was “significantly ameliorated the increase of paw thickness” each time. The “LPS-induced TNF-α in serum” value in data set [10] is “reduces LPS-induced TNF-α production in serum in a dose-dependent manner”. Besides, the NF-κB reporter activity result in [11] was “effective in inhibiting NF-κB transcription”. Also, the figures for the negative logarithm of the IC50 (pIC50) in data set [12] and in data set [13] were 5.15 and 5.07, respectively.

For `CN(C)c1cc(F)c(F)cc1CN1C[C@H]2N(C(=O)CN(C)N2C(=O)NCc2ccccc2)[C@@H](Cc2ccc(OP(=O)(O)O)cc2)C1=O` [Compound 14], the pIC50 in data set [3] was 5.77; in data set [1], 5.92. Further, the IC50 turned out to be 16 µM in the data set on HCT116 cells [4] and 21.1 µM in the data set on SW480 cells [5]. Further, the GI50 worked out at 2.1 µM with HCT116 cells [6] and 2.3 µM in the data set with SW480 cells [7].

By pIC50 is commonly meant the IC50 on a negative log10 scale, so that one unit is a factor of ten. For orientation: GI50 means the concentration giving 50% growth inhibition.
